Results on one compound are retold here after publication PMC8938411, “Novel functional insights into a modified sugar-binding protein from Synechococcus MITS9220” (Scientific Reports, 2022).

Usually Kd stands for the constant that tells how readily two partners part at equilibrium. The low end stands for higher affinity, the high end for lower affinity.

For the experiment, the target named is T1, MsBP (modified sugar-binding protein, MITS9220_00117), zinc-bound Zn-MsBP.
T1 construct: Tat signal peptide removed, N-terminal hexahistidine tag with thrombin cleavage site (pET15-b)
The experiment is described as follows: ITC of purified MsBP pre-incubated with Zn2+ ([…]x molar excess); supported by DSF (TM […] °C with Zn and FBP). The arrangement: species or system Synechococcus sp. MIT S9220. (In general: Differential scanning fluorimetry follows unfolding on heating by fluorescence.)

For the compound `O=P(O)(O)OC[C@H]1OC(O)(COP(=O)(O)O)[C@@H](O)[C@@H]1O` (stereo partly shown) [FBP, fructose-1,6-bisphosphate], the Kd worked out at 5.8 µM.
